Experimental data as given in paper PMC10714399, “Open Source Antibiotics: Simple Diarylimidazoles Are Potent against Methicillin-Resistant Staphylococcus aureus” (ACS Infectious Diseases, 2023).
≈ marks a conversion by molar mass, not a printed value. Where “and” joins values, the source holds several entries; their conditions need not be identical. Equal values may be shown once. Read-outs that look alike come from different tables or passages of the source.

How the values were obtained:
[1] = system: Cryptococcus neoformans H99 ATCC 208821; assay: CO-ADD antifungal assay, C. neoformans; format: cell-based; conditions: ATCC208821
Procedure: (§1) Hit Confirmation of active compounds by whole cell growth inhibition assays was conducted as an 8-point dose response to determine the Minimum Inhibitory Concentration (MIC), in duplicate (n=2). The inhibition of growth is measured against those microorganisms that […]
Included in the Hit Confirmation were 5 bacteria: Escherichia coli, Klebsiella pneumoniae, Acinetobacter baumannii, Pseudomonas aeruginosa and Staphylococcus aureus, and 2 fungi Candida albicans and Cryptococcus neoformans.
In addition to determining MIC, active compounds were counter screened for cytotoxicity against a human embryonic kidney cell line, HEK293, by determining their CC50 value. The compounds were also screened for haemolysis of human red blood cells.
(§2) Assay Parameters Bacteria Fungi HEK293 Haemolysis […]
(§3) Duplicate (n=2) Duplicate (n=2) Duplicate (n=2) Duplicate (n=2)
(§4) QC Control MIC: Control MIC: Control CC50: Control HC10:
(§5) Non-Binding Non-Binding TC, 384-well Polypropylene […]
Fungi strains were cultured for 3 days on Yeast Extract-Peptone Dextrose (YPD) agar at 30 °C. A yeast suspension of 1 x 10^6 to 5 x 10^6 CFU/mL (as determined by OD530) was prepared from five colonies. […]
In both cases, the percentage of growth inhibition was calculated for each well, using the negative control (media only) and positive control (fungi without inhibitors) on the same plate. […]
Reading Plates - Haemolysis Clear 384w Corning 3680 […]

[2] = Kinetic solubility estimation using nephelometry (Monash); format: physicochemical; conditions: for solubility kinetic at 30 min: kinetic from dmso stock
Procedure: Compound in DMSO was spiked into either pH 6.5 phosphate buffer or 0.01 M HCl (approximately pH 2.0) with the final DMSO concentration being 1%. […]
b) Kinetic Solubility Estimation using Nephelometry (SolpH)
Compound in DMSO was spiked into either pH 6.5 phosphate buffer or 0.01 M HCl (approx pH 2.0) with the final
DMSO concentration being 1%. After 30 minutes had elapsed, samples were then analysed via Nephelometry to
determine a solubility range. See Bevan and Lloyd (2000) Anal Chem, 72:1781-1787. […]
(§6) In Vitro Intrinsic Clearance […]
(§7) Experimental results are tabulated on the following page(s).
(§8) (1 picture or pasted object on this page, not shown here)

[3] = In vitro metabolic stability, rat liver microsomes (Monash); format: in vitro ADME
Procedure: (§9) The metabolic stability assay was performed by incubating each test compound with a suspension of liver microsomes (0.4 mg/mL protein, 1 μM substrate, 37 °C). Microsomes were purchased from XenoTech. The metabolic reaction was initiated by the addition of an NADPH-regenerating system and quenched at various time points over a 60 min incubation by the addition of acetonitrile containing metolazone as an internal standard. Control samples (containing no NADPH) were included (quenched at 2, 30, and 60 min) to monitor for potential degradation in the absence of cofactor. […]
(§10) d) In Vitro Metabolic Stability
(§11) The metabolic stability assay was performed by incubating each test compound with a suspension of liver
(§12) microsomes (0.4 mg/mL, 37°C). The metabolic reaction was initiated by the addition of an NADPH-regenerating
(§13) system and quenched at various time points over a 60 minute incubation by the addition of acetonitrile containing
(§14) metolazone as internal standard. Control samples (containing no NADPH) were included (quenched at 2, 30 and 60
(§15) minutes) to monitor for potential degradation in the absence of cofactor.
(§16) The human liver microsomes used in this experiment were supplied by XenoTech, lot # 1710084.The rat liver
(§17) microsomes used in this experiment were supplied by XenoTech, lot # 1610290. Microsomal incubations were
(§18) performed at a substrate concentration of 1 µM.
(§19) Data analysis and interpretation:
(§20) Substrate depletion as a function of time was analysed as described by Obach (1999) Drug Metab. Dispos., 27:1350-
(§21) 1359. Intrinsic clearance (CLint) values were classified at the limits of low and high clearance bands based on a
(§22) rearrangement of the well stirred model of hepatic elimination. It should be noted that the potential impact of
(§23) compound binding (either in microsomes or in blood) on the relationship between in vitro intrinsic clearance and
(§24) hepatic clearance in vivo has not been accounted for in these studies.
(§25) In Vitro Intrinsic Clearance
(§26) Species (µL/min/mg protein)
(§27) Low Clearance High Clearance
as §7, §8

[4] = Mouse liver microsome (MLM) metabolic stability (UNC); format: in vitro ADME
From the text: Supplement id3c00286_si_002.xlsx, sheet "Series 2 Data" | column: MLM Clint (mL/min/kg) (UNC); MLM t1/2 (min) (UNC); MLM E (UNC)

[5] = In vitro metabolic stability, human liver microsomes (Monash); format: in vitro ADME
Procedure: as §9, §10, §11, §12, §13, §14, §15, §16, §17, §18, §19, §20, §21, §22, §23, §24, §25, §26, §27, §7, §8

[6] = system: Staphylococcus aureus NCTC 13373 (mecA-positive; methicillin-resistant); assay: In vitro antibacterial activity, MIC (UCL School of Pharmacy assay), MRSA; format: cell-based; conditions: for MIC: Staphylococcus aureus
Outline: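 MIC determined over 32–0.03 μg/mL in 2-fold steps, with at most 2% DMSO, in isosensitest broth. Organisms were suspended in PBS to A600 0.1 (about 1 × 10^8 CFU/mL), diluted 1:100 and inoculated; vancomycin served as QC compound.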

[7] = Distribution coefficient estimation using chromatography, gLogD (Monash); format: physicochemical
From the text: Partition coefficient values (LogD) of the test compounds were estimated at pH 7.4 by the correlation of their chromatographic retention properties against the characteristics of a series of standard compounds with known partition coefficient values. The method employed is a gradient HPLC-based derivation of the method developed by Lombardo.[42] […]
c) Distribution Coefficient Estimation using Chromatography (gLogDpH)
Partition coefficient values (LogD) of the test compounds were estimated at pH 7.4 by correlation of their
chromatographic retention properties against the characteristics of a series of standard compounds with known
partition coefficient values. […]
as §6, §7, §8

[8] = Rat liver microsome (RLM) metabolic stability (UNC); format: in vitro ADME; conditions: rat liver microsomes
From the text: Supplement id3c00286_si_002.xlsx, sheet "Series 2 Data" | column: RLM Clint (mL/min/kg) (UNC); RLM t1/2 (min) (UNC); RLM E (UNC)

[9] = system: p38 kinase; parameters: method as in earlier work; conditions: cited from earlier work
[10] = system: Acinetobacter baumannii ATCC 19606; assay: CO-ADD antibacterial assay, A. baumannii; format: cell-based
Procedure: as §1
(§28) Included in the Hit Confirmation were 5 bacteria: Escherichia coli, Klebsiella pneumoniae, Acinetobacter baumannii, Pseudomonas aeruginosa and Staphylococcus aureus, and 2 fungi Candida albicans and Cryptococcus neoformans. […]
as §2, §3, §4, §5
(§29) All bacteria were cultured in Cation-adjusted Mueller Hinton broth (CAMHB) at 37 °C overnight. […] The resultant mid-log phase cultures were diluted (CFU/mL measured by OD600), then added to each well of the compound containing plates, giving a cell density of 5×10^5 CFU/mL and a total volume of 50 µL. […]
(§30) Inhibition of bacterial growth was determined measuring absorbance at 600 nm (OD600), using a Tecan M1000 Pro monochromator plate reader. The percentage of growth inhibition was calculated for each well, using the negative control (media only) and positive control (bacteria without inhibitors) on the same plate as references. […]

[11] = system: Pseudomonas aeruginosa ATCC 27853; assay: CO-ADD antibacterial assay, P. aeruginosa; format: cell-based
Procedure: as §1, §28, §2, §3, §4, §5, §29, §30

[12] = system: Escherichia coli ATCC 25922; assay: CO-ADD antibacterial assay, E. coli; format: cell-based
Procedure: as §1, §28, §2, §3, §4, §5, §29, §30

[13] = system: Klebsiella pneumoniae ATCC 700603; assay: CO-ADD antibacterial assay, K. pneumoniae; format: cell-based
Procedure: as §1, §28, §2, §3, §4, §5, §29, §30

[14] = NADPH, read-out: CLint, in vitro

OC(Cn1cncn1)(Cn1cncn1)c1ccc(F)cc1F [Fluconazole]
MIC [1]: 8 µg/mL

c1ccc(-c2nc3n(c2-c2ccc4c(c2)OCO4)CCC3)nc1 [OSA_000812]
solubility kinetic at 30 min ([2]; 0.01 M HCl, simulated gastric fluid, pH 2.0, read-out: Sol (pH 2.0) (Monash)): > 100 µg/mL | solubility kinetic at 30 min ([2]; pH 6.5 phosphate buffer, pH 6.5, aqueous buffer, read-out: Sol (pH 6.5) (Monash)): 50 to 100 µg/mL (≈ 164 to 328 µM) | RLM Clint (Monash) ([3]; Monash): 59 µL/min/mg | RLM t1/2 (Monash) ([3]; Monash): 29 min | MLM Clint (UNC) ([4]; mouse liver microsomes): 677 mL/min/kg | MLM E (UNC) ([4]; mouse liver microsomes): 0.864 and 0.883 | MLM t1/2 (UNC) ([4]; mouse liver microsomes): 8.3 min | CLint scaled ([4]; mouse, liver microsomes): 569 mL/min/kg | half-life ([4]; mouse, liver microsomes, read-out: MLM t1/2 (UNC)): 9.87 min | HLM Clint (Monash) ([5]; Monash): 28 µL/min/mg | HLM t1/2 (Monash) ([5]; Monash): 62 min | MIC ([6]; UCL, read-out: MRSA MIC (UCL)): 32 µg/mL (≈ 105 µM) | chromatographic logD ([7]; gradient HPLC retention against standard compounds, pH 7.4): 1.5 | CLint scaled [8]: 142 mL/min/kg | RLM E (UNC) [8]: 0.669 | half-life ([8]; read-out: RLM t1/2 (UNC)): 17.7 min

c1ccc(-c2nc3n(c2-c2ccc4c(c2)OCO4)CCC3)nc1 [compound 812]
Sol 6.5 ([2]; pH 6.5 phosphate buffer): 50 to 100 µg/mL | microsomal CLint at 1 µM [3, 14]: 59 µL/min/mg | half-life at 1 µM ([3]; NADPH, read-out: T1/2): 29 min | microsomal CLint at 1 µM [5, 14]: 28 µL/min/mg | half-life at 1 µM ([5]; NADPH, read-out: T1/2): 62 min | activity against MRSA, in words [6]: MRSA-inactive | MIC ([6]; 16 h, read-out: MRSA MIC): > 32 µg/mL | MIC ([6]; read-out: MRSA MIC): 32 µg/mL (≈ 105 µM) | gLogD at pH 7.4 [7]: 1.5 | inhibition of p38 kinase [9]: no inhibition

Colistin - Sulfate
MIC Acinetobacter baumannii [10]: 0.25 µg/mL | MIC Pseudomonas aeruginosa [11]: 0.25 µg/mL | MIC Escherichia coli [12]: 0.125 µg/mL | MIC Klebsiella [13]: 0.25 µg/mL
